In one series the target is Neprilysin (Homo sapiens, UniProt P08473).
Series [1] concerns the target Angiotensin-converting enzyme (Homo sapiens) (UniProt P12821).
The nature of series [2]: Clearance in iv dosed rat. In kind it is ADME, organism-based. The settings on record: in vivo.
Series [3] can be described thus: Half life in iv dosed rat. The conditions noted are these: in vivo. The class given is ADME, organism-based.
Series [4] can be described thus: Oral bioavailability in rat. The conditions noted are these: in vivo. In kind it is ADME, organism-based.

Molecules are shown by their SMILES.

Consider 13 compounds from ChEMBL document CHEMBL1777772, “Synthesis and evaluation of heteroarylalanine diacids as potent and selective neutral endopeptidase inhibitors” (Bioorg Med Chem Lett, 2011).

One may read the IC50 as the point on the concentration scale where inhibition reaches its midpoint. A higher IC50 goes with weaker potency. As usually defined, the clearance is the rate of elimination divided by the concentration. The term half-life denotes how long it takes for the measured level to halve. A higher half-life goes with slow loss. The bioavailability is dose-corrected exposure relative to a reference, in per cent.

Sequence of Angiotensin-converting enzyme (Homo sapiens) (P12821 whole entry, looked up): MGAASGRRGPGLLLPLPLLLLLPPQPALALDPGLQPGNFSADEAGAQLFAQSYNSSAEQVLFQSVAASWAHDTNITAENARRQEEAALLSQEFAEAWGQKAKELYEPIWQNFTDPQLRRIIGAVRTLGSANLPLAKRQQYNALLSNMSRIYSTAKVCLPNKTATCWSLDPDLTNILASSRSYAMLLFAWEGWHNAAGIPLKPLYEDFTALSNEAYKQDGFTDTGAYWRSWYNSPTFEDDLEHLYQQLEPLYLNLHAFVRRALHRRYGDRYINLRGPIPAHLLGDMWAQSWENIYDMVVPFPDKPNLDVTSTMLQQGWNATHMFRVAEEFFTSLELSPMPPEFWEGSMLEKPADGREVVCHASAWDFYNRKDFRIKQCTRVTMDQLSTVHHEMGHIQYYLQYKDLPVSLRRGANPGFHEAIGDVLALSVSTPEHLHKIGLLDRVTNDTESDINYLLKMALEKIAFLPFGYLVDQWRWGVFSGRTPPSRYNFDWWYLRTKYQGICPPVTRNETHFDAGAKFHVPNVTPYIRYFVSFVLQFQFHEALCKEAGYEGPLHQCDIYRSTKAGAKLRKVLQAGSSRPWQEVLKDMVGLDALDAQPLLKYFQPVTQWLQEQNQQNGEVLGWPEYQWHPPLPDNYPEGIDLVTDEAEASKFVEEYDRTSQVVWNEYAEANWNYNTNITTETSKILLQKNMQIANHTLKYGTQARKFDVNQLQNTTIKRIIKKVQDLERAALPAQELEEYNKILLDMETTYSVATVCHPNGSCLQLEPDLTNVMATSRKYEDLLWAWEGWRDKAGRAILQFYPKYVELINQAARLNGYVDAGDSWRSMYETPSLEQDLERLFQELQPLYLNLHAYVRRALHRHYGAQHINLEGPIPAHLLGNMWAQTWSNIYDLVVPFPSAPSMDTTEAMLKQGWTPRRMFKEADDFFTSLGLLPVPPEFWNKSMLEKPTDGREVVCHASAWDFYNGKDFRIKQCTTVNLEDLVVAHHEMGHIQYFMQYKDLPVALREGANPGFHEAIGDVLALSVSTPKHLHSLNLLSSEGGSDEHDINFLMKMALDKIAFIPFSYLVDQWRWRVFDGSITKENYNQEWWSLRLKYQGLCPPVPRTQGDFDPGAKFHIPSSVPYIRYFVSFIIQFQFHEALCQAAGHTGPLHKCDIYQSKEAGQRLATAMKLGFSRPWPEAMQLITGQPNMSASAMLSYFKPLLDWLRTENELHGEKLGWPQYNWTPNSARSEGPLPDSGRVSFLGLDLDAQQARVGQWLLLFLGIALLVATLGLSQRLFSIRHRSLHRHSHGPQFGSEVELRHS
Sequence of Neprilysin (P08473 whole entry): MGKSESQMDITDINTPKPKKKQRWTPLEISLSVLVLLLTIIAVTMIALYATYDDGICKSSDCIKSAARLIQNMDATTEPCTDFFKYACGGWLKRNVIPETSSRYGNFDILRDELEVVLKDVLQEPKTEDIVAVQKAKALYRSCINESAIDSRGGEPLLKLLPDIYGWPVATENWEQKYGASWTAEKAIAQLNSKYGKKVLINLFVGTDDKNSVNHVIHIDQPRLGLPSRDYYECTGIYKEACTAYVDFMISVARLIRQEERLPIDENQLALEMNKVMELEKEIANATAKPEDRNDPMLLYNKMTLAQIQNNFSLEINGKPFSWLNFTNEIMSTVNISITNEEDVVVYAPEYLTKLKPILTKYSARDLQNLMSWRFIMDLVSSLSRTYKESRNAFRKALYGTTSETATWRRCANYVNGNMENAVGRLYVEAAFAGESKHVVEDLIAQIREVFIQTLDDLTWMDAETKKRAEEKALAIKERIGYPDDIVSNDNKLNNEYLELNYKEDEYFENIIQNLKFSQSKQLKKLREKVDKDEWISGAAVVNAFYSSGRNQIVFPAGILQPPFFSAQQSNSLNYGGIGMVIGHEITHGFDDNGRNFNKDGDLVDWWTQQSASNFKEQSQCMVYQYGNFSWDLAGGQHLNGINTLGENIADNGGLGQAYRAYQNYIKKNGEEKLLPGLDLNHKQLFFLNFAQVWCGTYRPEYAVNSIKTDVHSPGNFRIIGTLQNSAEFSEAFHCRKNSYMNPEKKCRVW
Description for Neprilysin: Inhibition of neutral endopeptidase

As for `CCC[C@H](NC1(C(=O)N[C@@H](Cc2nc(CC(C)C)co2)C(=O)O)CCCC1)C(=O)O`, the values for the IC50 (at Neprilysin; in series [1]) were 20 nM and 75 nM, respectively. For `COCC[C@H](NC1(C(=O)N[C@@H](Cc2nc(-c3ccccc3)no2)C(=O)O)CCCC1)C(=O)O`, the values for the IC50 (on Neprilysin; in series [1]) were 1.9 nM and 58 nM, respectively. For `COCC[C@H](NC1(C(=O)N[C@@H](Cc2ncc(-c3ccc(Cl)cc3)o2)C(=O)O)CCCC1)C(=O)O`, in that order: 0.3 nM and 195 nM. With `CCC[C@H](NC1(C(=O)N[C@@H](Cc2nc(-c3ccccc3)co2)C(=O)O)CCCC1)C(=O)O`, the midpoint of inhibition in series [1], the IC50, lay at 25 nM. On to `COCCOC[C@H](CC1(C(=O)N[C@H]2CC[C@@H](C(=O)O)CC2)CCCC1)C(=O)O` [CANDOXATRILAT], for which the IC50 against Neprilysin is 7.8 nM; in series [1], “Not Active”. On to `COCC[C@H](NC1(C(=O)N[C@@H](Cc2nnc(-c3ccccc3)o2)C(=O)O)CCCC1)C(=O)O`, for which the IC50 on Neprilysin was 6 nM; in series [1], over 3000 nM. For `CCC[C@H](NC1(C(=O)N[C@@H](Cc2nc(CC)co2)C(=O)O)CCCC1)C(=O)O`, in that order: 22 nM and 130 nM. In series [1], `COCC[C@H](NC1(C(=O)N[C@@H](Cc2nc(-c3ccccc3)co2)C(=O)O)CCCC1)C(=O)O` came in with an IC50 of 130 nM. For `CS(=O)(=O)N[C@@H](CCCCN)C(=O)NC[C@H](CC1(C(=O)N[C@@H](Cc2ccc(O)cc2)C(=O)O)CCCC1)C(=O)O` [SAMPATRILAT], the concentration for half-maximal inhibition (IC50) on Neprilysin turned out to be 0.6 nM; in series [1], 3.4 nM. In series [1], `COCC[C@H](NC1(C(=O)N[C@@H](Cc2nc(C)c(-c3ccccc3)o2)C(=O)O)CCCC1)C(=O)O` displayed an IC50 of 210 nM. Compound `COCC[C@H](NC1(C(=O)N[C@@H](Cc2ncc(-c3ccccc3)o2)C(=O)O)CCCC1)C(=O)O` gave a clearance in series [2] of 4.8 mL/min/kg. In series [3], the half-life was 2.1 h. In addition, the bioavailability in series [4] stood at 1.7%. This compound yielded an IC50 in series [1] of 270 nM. In the case of `CCC[C@H](NC1(C(=O)N[C@@H](Cc2ncc(-c3ccccc3)o2)C(=O)O)CCCC1)C(=O)O`, in series [1], the midpoint of inhibition, the IC50, lay at 82 nM. On to `CC(C)CC[C@H](N[C@@H](CCc1ccccc1)C(=O)O)C(=O)N[C@@H](Cc1ccc(-c2ccccc2)cc1)C(=O)O`, for which the IC50 against Neprilysin came to 28 nM; in series [1] it was 1.5 nM.
